Experimental data reported in PubChem BioAssay (NCI).
Where “and” joins values, the source holds several entries; their conditions need not be identical. Equal entries are not always repeated.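 How tested: cells in 96-well plates exposed to compound for 48 hours at five concentrations. Here, GI50 denotes the concentration required for 50% inhibition of growth. TGI is the concentration that stops growth completely.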

Legend:
Assay in all cases: DTP human tumour cell line panel, 48 h
HCT-116 colon = tested on: HCT-116 colon
IGROV1 ovarian = tested on: IGROV1 ovarian
HL-60(TB) leukemia = tested on: HL-60(TB) leukemia
NCI-H23 lung = tested on: NCI-H23 lung
HOP-62 NSCLC = tested on: HOP-62 NSCLC
OVCAR-4 ovarian = tested on: OVCAR-4 ovarian
HCC-2998 colon = tested on: HCC-2998 colon
MALME-3M melanoma = tested on: MALME-3M melanoma
SK-MEL-5 melanoma = tested on: SK-MEL-5 melanoma
MCF7 breast = tested on: MCF7 breast

Row | SMILES | TGI (HCT-116 colon) | TGI (IGROV1 ovarian) | TGI (HL-60(TB) leukemia) | TGI (NCI-H23 lung) | TGI (HOP-62 NSCLC) | TGI (OVCAR-4 ovarian) | TGI (HCC-2998 colon) [µM] | TGI (MALME-3M melanoma) | GI50 (HCT-116 colon) [µM] | GI50 (NCI-H23 lung) [µM] | GI50 (SK-MEL-5 melanoma) [µM] | TGI (SK-MEL-5 melanoma) | GI50 (OVCAR-4 ovarian) [µM] | GI50 (HCC-2998 colon) [µM] | TGI (MCF7 breast) [µM] | GI50 (MALME-3M melanoma) [µM] | GI50 (IGROV1 ovarian) [µM] | GI50 (HL-60(TB) leukemia) [µM] | GI50 (HOP-62 NSCLC) [µM] | GI50 (MCF7 breast) [µM]
1 | COC1/C(=C\C(=O)OC(C)(C)C)c2ccccc2N1C(C)=O (stereo not drawn) | > 100 µM | > 100 µM | > 100 µM | > 100 µM | > 100 µM | > 100 µM | > 100 |  |  |  |  |  |  |  |  |  |  |  |  | 
2 | CC1(CO)OC1COCc1ccccc1 (stereo not drawn) |  | > 100 µM | > 100 µM | > 100 µM | > 100 µM |  |  | > 100 µM |  |  |  |  |  |  |  |  |  |  |  | 
3 | Nc1nc(Nc2ccc3c(c2)CC[C@@H](N2CCCC2)CC3)nn1-c1cc2c(nn1)-c1ccccc1CCC2 | 3.08 µM |  |  | 3.56 µM |  | 3.31 µM | 3.1 |  | 1.5 | 1.72 | 1.72 | 3.11 µM | 1.44 | 1.61 |  |  |  |  |  | 
4 | Cc1nc2c(=O)[nH]c(=O)n(C)c2[nH]c1=O | > 100 µM | > 100 µM | > 100 µM | > 100 µM | > 100 µM | > 100 µM | > 100 | > 100 µM |  |  |  | > 100 µM |  |  |  |  |  |  |  | 
5 | O=C1C(=Cc2ccco2)C(=O)C2CCCCC12 (stereo not drawn) | > 100 µM | > 100 µM |  | > 100 µM | > 100 µM | > 100 µM | > 100 | > 100 µM |  |  |  | > 100 µM |  |  | > 100 |  |  |  |  | 
6 | O=C(O)c1c2c(c(C(=O)O)c3ccccc13)-c1ccccc1-2 | > 100 µM |  | > 100 µM | > 100 µM | > 100 µM |  | > 100 | > 100 µM |  |  |  |  |  |  |  |  |  |  |  | 
7 | CC(=O)OCC1OC(OC2CC3C(C)(C)C(OC(C)=O)CC[C@]3(C)C3CCC45CC4(CC[C@H]5C(C)CC(O)[C@@H](O)C(C)(C)O)[C@]23C)C(O)C(O)C1O (stereo partly drawn) | 13.8 µM and 21.7 µM | 13.7 µM and 14.4 µM | 11.9 µM and 5.3 µM | 14.9 µM and 26.3 µM | 11.8 µM and 25.9 µM | 12.7 µM and 26.1 µM | 12.9 | 13.9 µM and 26 µM |  | 13.5 |  | 13.2 µM and 19.7 µM | 13.4 |  |  | 13.2 | 4.63 | 2.45 | 12.1 | 
8 | COc1cc2c(c(OC)c1OC)-c1ccc(SC)c(=O)cc1[C@@H](NC(=O)c1ccc(OC(C)=O)cc1)CC2 | 0.0514 µM and 0.015 µM | > 100 µM | 20.5 µM | 0.049 µM | 22.2 µM | 23.1 µM | 0.0549 |  |  |  | 0.0196 |  | 10.6 |  |  |  |  |  | 0.0126 | 
9 | NCCCN(CCCN)CCCNCc1c2ccccc2c(CNCCCN(CCCN)CCCN)c2ccccc12 | 47.9 µM | 28.1 µM | 38 µM | 85.6 µM | 32.9 µM | 34 µM | 20.1 | 22.4 µM |  |  |  | 17.9 µM |  |  |  |  |  |  |  | 
10 | COc1ccc(C2S/C(=C\c3cc(OC)c(OC)c(OC)c3)C(=O)N2NC(=O)Cc2ccccc2)cc1 (stereo not drawn) | > 100 µM | > 100 µM | > 100 µM | > 100 µM | > 100 µM | > 100 µM |  | > 100 µM |  |  |  | > 100 µM |  |  |  |  |  |  |  | 
11 | COC1/C=C\C=C(/C)C(=O)Nc2cc3nc4ccc(Br)cc4oc-3c(c2=O)CC(C)CC(OC)C(O)C(C)/C=C(\C)C1OC(N)=O (stereo not drawn) | 4.92 µM | 19.2 µM |  |  | 21.2 µM | 3.97 µM | 3.2 | 12.6 µM | 0.00083 |  |  | 9.44 µM |  | 0.00856 |  | 0.00493 | 0.00312 | 0.000389 |  | 
12 | C[C@@H]1O[C@@H](O[C@@H]2[C@@H](O)[C@H](OCCc3ccc(O)c(O)c3)O[C@H](COC(=O)/C=C/c3ccc(O)c(O)c3)[C@H]2O)[C@H](O)[C@H](O)[C@H]1O | 75.3 µM | > 100 µM | > 100 µM |  | > 100 µM | > 100 µM |  |  | 36.1 |  | > 100 | > 100 µM | > 100 |  |  |  | > 100 | 54.4 | > 100 | 
13 | CC1(C)OC[C@@H]([C@@]2(CO[Si](C)(C)C(C)(C)C)CC=CC(=O)O2)O1 | 44.6 µM | 49.6 µM |  |  | 53.1 µM | > 100 µM | 34.1 | 47.6 µM | 17.6 |  | 19 | 36.3 µM | 30.7 | 18.6 | > 100 | 20.1 | 23.1 |  | 31 | 36.8
14 | O=C(CNC(=O)OCc1ccccc1)Oc1ccccc1 | > 100 µM | > 100 µM | > 100 µM | > 100 µM | > 100 µM | > 100 µM | > 100 | > 100 µM |  |  |  | > 100 µM |  |  |  |  |  |  |  | 
15 | COc1ccc(C(=O)C(c2ccc(OC)cc2)C2(O)C(=O)Nc3c(C)cc(Cl)cc32)cc1 (stereo not drawn) | > 100 µM | > 100 µM | > 100 µM | > 100 µM | > 100 µM | > 100 µM | > 100 | > 100 µM |  |  |  |  |  |  |  |  |  |  |  | 
16 | CCOC(=O)/C(=C\c1ccc(OCc2ccccc2)c(OC)c1)C(=O)c1ccccc1 | 31.3 µM | 64.6 µM | 49 µM | 35.2 µM | 33.6 µM | > 100 µM | > 100 | 32.3 µM |  |  |  | 31.9 µM |  |  |  |  |  |  |  | 
17 | C=CC[C@H]1C[C@@]2(C)OC[C@H](C(C)C)N2C1=O | > 100 µM | > 100 µM |  | > 100 µM | > 100 µM | > 100 µM |  | > 100 µM |  |  |  | > 100 µM |  |  |  |  |  |  |  | 
18 | CC1Cc2c(N)nc(NN)nc2NC1=O (stereo not drawn) | > 100 µM | > 100 µM | > 100 µM | > 100 µM | > 100 µM |  |  | > 100 µM |  |  |  | > 100 µM |  |  |  |  |  |  |  | 
19 | Cc1ncc([N+](=O)[O-])n1CCNS(=O)(=O)CCCn1ccnc1[N+](=O)[O-] | > 100 µM | > 100 µM | > 100 µM | > 100 µM | > 100 µM | > 100 µM |  | > 100 µM |  |  |  | > 100 µM |  |  | > 100 |  |  |  |  | 
20 | CCCCCCCCCNCCCCCCCCC | 3.16 µM | 3.8 µM |  | 3.39 µM | 3.38 µM | 3.78 µM | 3.24 | 3.85 µM | 1.77 | 1.72 | 1.77 | 3.2 µM | 1.75 | 1.69 | 3.3 | 1.91 | 1.89 |  | 1.93 | 1.7
21 | CN(C)CC(/C(Cc1ccccc1)=N\NC(=O)c1ccncc1)c1ccccc1 (stereo not drawn) |  | > 100 µM | 32 µM | > 100 µM | > 100 µM | > 100 µM | > 100 | 93.4 µM |  |  |  | 46.2 µM |  |  |  |  |  |  |  | 
